Some test systems named below: A549 NSCLC; CAKI-1 renal; KM12 colon; EKVX NSCLC; UO-31 renal; SK-MEL-2 melanoma; DMS 114 small cell lung; M19-MEL melanoma; SF-295 CNS; MDA-MB-435.
Holding throughout (experiment): DTP human tumour cell line panel, 48 h

As a reminder, the TGI is the concentration giving total growth inhibition. Low values mean more potent growth arrest, high ones less potent growth arrest. Usually GI50 stands for the concentration that inhibits growth by half.

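Following 48 hours of exposure in 96-well plates, responses at five concentrations were used to interpolate endpoints linearly. GI50: concentration for 50% inhibition of growth. At the TGI there is no net growth.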

Turning to `C/C(=N\NC(N)=S)C(CN(CC(C)C)CC(C)C)C(=O)Nc1ccc(C)cc1C` (stereo not given), the concentration for total growth inhibition (TGI) with A549 NSCLC, in the test with CAKI-1 renal, in the test with KM12 colon, in the test with EKVX NSCLC, in the test with UO-31 renal and with SK-MEL-2 melanoma was more than 100 µM throughout. Also, the TGI with DMS 114 small cell lung, with M19-MEL melanoma and with SF-295 CNS was more than 100 µM each time.

For the compound `Nc1c(C(=O)Nc2ccccc2)[n+]([O-])c2ccccc2[n+]1[O-]`, the TGI with A549 NSCLC came to 68 µM; in the test on CAKI-1 renal it was 16.8 µM; in the test on KM12 colon it was 30.4 µM; in the test with EKVX NSCLC, 56.9 µM; in the test with UO-31 renal, 42 µM; in the test on SK-MEL-2 melanoma, 33.5 µM. Besides, the TGI with DMS 114 small cell lung was 26.8 µM; in the test on M19-MEL melanoma it was 32.2 µM; in the test on SF-295 CNS it was 41.1 µM.

Turning to `CC(=O)OC1(C)C(=O)OC1(C)C(C)=O` (stereo not given), the TGI in the test with A549 NSCLC, in the test on CAKI-1 renal, in the test on KM12 colon, in the test on EKVX NSCLC, in the test on UO-31 renal and in the test on SK-MEL-2 melanoma was more than 100 µM in each case. In addition, the TGI in the test on DMS 114 small cell lung, in the test with M19-MEL melanoma and in the test with SF-295 CNS was more than 100 µM each time.

With `CC(C)(C)C(=O)ON1N=NC2C3CC(OCc4ccccc4)(OCc4ccccc4)C(O3)C21` (stereo not given), the TGI is more than 100 µM with A549 NSCLC; more than 100 µM with CAKI-1 renal; 55.4 µM in the test with KM12 colon; 49.7 µM in the test on UO-31 renal; 34.3 µM in the test on SK-MEL-2 melanoma; 30 µM with M19-MEL melanoma. The compound further yielded a TGI in the test on SF-295 CNS of 52.9 µM.

With `O=C1CN(C(=O)c2ccccc2)Cc2[nH]c3ccccc3c21`, the concentration for total growth inhibition (TGI) with A549 NSCLC, in the test with KM12 colon, with EKVX NSCLC, with UO-31 renal, in the test with SK-MEL-2 melanoma and in the test on DMS 114 small cell lung was more than 100 µM throughout. For the same compound, the TGI in the test with M19-MEL melanoma and with SF-295 CNS was more than 100 µM each time.

In the case of `CN1CC(C(=O)C2C(=O)c3ccccc3C2=O)C(=O)C(=O)C(C(=O)C2C(=O)c3ccccc3C2=O)C1` (stereo not given), the TGI in the test with A549 NSCLC, in the test with CAKI-1 renal, in the test on KM12 colon, with UO-31 renal, in the test with SK-MEL-2 melanoma and in the test on DMS 114 small cell lung was more than 100 µM each time. In the test with SF-295 CNS, this compound returned a TGI of more than 100 µM.

In the case of `O=C(OCC1CO1)c1cccs1` (stereo not given), the TGI in the test with A549 NSCLC, in the test on CAKI-1 renal, in the test on KM12 colon, in the test with EKVX NSCLC, in the test with UO-31 renal and in the test on SK-MEL-2 melanoma was more than 100 µM in each case. For the same compound, the TGI with DMS 114 small cell lung, in the test on M19-MEL melanoma and in the test on SF-295 CNS was more than 100 µM each time.

Turning to `COc1cc2c(cc1O)CC13CCC(=O)N1CCc1cc(OC)c(O)c-2c13` (stereo not given), the TGI in the test on A549 NSCLC, in the test with CAKI-1 renal, in the test on EKVX NSCLC, with UO-31 renal, in the test with DMS 114 small cell lung and in the test with M19-MEL melanoma was more than 68.1 µM throughout. Further, the TGI with SF-295 CNS is more than 68.1 µM.

On to `CCOC(=O)C1SC(=Nc2ccc(Cl)c(Cl)c2)N=C1C` (stereo not given), for which the TGI with A549 NSCLC, in the test on CAKI-1 renal, in the test with KM12 colon, in the test on EKVX NSCLC, with UO-31 renal and with SK-MEL-2 melanoma was more than 100 µM throughout. The TGI in the test with M19-MEL melanoma and with SF-295 CNS was more than 100 µM in each case.

Regarding `CCOC(=O)C(=Cc1ccc(C(=O)OC)cc1)C(=O)OCC`, the TGI came to 12.4 µM in the test on A549 NSCLC; 3.35 µM in the test with CAKI-1 renal; 8.15 µM in the test on KM12 colon; 26.9 µM in the test on EKVX NSCLC; 3.37 µM in the test with SK-MEL-2 melanoma; 3.74 µM with DMS 114 small cell lung. Further, the values for the TGI in the test with M19-MEL melanoma and in the test with SF-295 CNS were 10.2 µM and 19.2 µM, respectively.

In the case of `COc1ccccc1NC(=O)C1=C(C)NC(C)=C(C(=O)Nc2ccccc2OC)C1c1ccc(C)cc1`, the TGI in the test with CAKI-1 renal, in the test on KM12 colon, in the test on EKVX NSCLC, in the test on UO-31 renal, in the test on SK-MEL-2 melanoma and with DMS 114 small cell lung was more than 100 µM in each case. Also, the TGI in the test with M19-MEL melanoma and in the test on SF-295 CNS was more than 100 µM in each case.

On to `CC(=O)CCCCO`, for which the TGI with A549 NSCLC, in the test with CAKI-1 renal, with KM12 colon, in the test on EKVX NSCLC, in the test with UO-31 renal and with SK-MEL-2 melanoma was more than 100 µM throughout. The TGI in the test on DMS 114 small cell lung, with M19-MEL melanoma and in the test with SF-295 CNS was more than 100 µM throughout.

With `CCN(CCCl)CCCNc1c2ccccc2nc2ccc(OC)cc12`, the figures for the TGI in the test on A549 NSCLC, in the test with UO-31 renal and with DMS 114 small cell lung were 1300 µM, 2060 µM and 1.76 µM, respectively. Besides, the GI50 in the test with CAKI-1 renal was 133 µM; with KM12 colon it was 268 µM; in the test with EKVX NSCLC it was 557 µM; in the test with SK-MEL-2 melanoma it was 587 µM; in the test with M19-MEL melanoma, 323 µM; in the test on SF-295 CNS, 308 µM.

As for `NC(=O)C(c1ccccc1)N1CCOCC1` (stereo not given), the TGI in the test on A549 NSCLC, with CAKI-1 renal, in the test on KM12 colon, in the test on UO-31 renal, with SK-MEL-2 melanoma and in the test on DMS 114 small cell lung was more than 100 µM in each case. Also, the TGI in the test with M19-MEL melanoma and with SF-295 CNS was more than 100 µM each time.

Consider `CCSC1=C(C)N(C=NC(C)(C)C)CC1`, for which the TGI in the test with A549 NSCLC, with CAKI-1 renal, in the test on KM12 colon, in the test with EKVX NSCLC, in the test on UO-31 renal and in the test with SK-MEL-2 melanoma was more than 100 µM each time. The TGI with DMS 114 small cell lung, in the test on M19-MEL melanoma and with SF-295 CNS was more than 100 µM throughout.

With `COc1ccc(-n2c3c(c4c(CN5CCOCC5)c(O)ccc42)CCc2ccccc2C3=O)cc1`, the GI50 was more than 100 µM in the test with A549 NSCLC; 37.8 µM in the test on CAKI-1 renal; more than 100 µM in the test on KM12 colon; more than 100 µM in the test on EKVX NSCLC; more than 100 µM with UO-31 renal; more than 100 µM in the test on SK-MEL-2 melanoma. Further, the GI50 in the test on MDA-MB-435 is 12.1 µM; in the test with SF-295 CNS, more than 100 µM. Further, the TGI with A549 NSCLC, in the test with CAKI-1 renal, in the test with KM12 colon, in the test on EKVX NSCLC, in the test on UO-31 renal and in the test with SK-MEL-2 melanoma was more than 100 µM throughout. Also, the TGI was 47.8 µM in the test with MDA-MB-435 and more than 100 µM with SF-295 CNS.

Values taken from PubChem BioAssay (NCI).
